Reference: patent US20230312577A1, “DUAL KINASE-BROMODOMAIN INHIBITORS” (MONASH UNIVERSITY, priority 2020, published 2023)

Assays:
MYC target genes = test: RNA-Seq and Gene Set Enrichment Analysis (GSEA) in OPM2 cells; format: cell-based, human; conditions: 250 nM, 2 h
Procedure: OPM2 cells (4×10^6) were treated with 250 nM of Cpd 010 or DMSO vehicle for 2 h. Cells pellets were collected, and RNA was extracted using the Nucleospin RNA extraction kit (Macherey-Nagel) as per the manufacturer's instructions. The QuantSeq 30 mRNA-seq Library Prep Kit for Illumina (Lexogen) was used to generate libraries as per the manufacturer's instructions, which were sequenced on the NextSeq (Illumina; 75 bp SE). GSEA2-2.2.2 was used for identification of enriched signatures obtained from the MSigDB Hallmarks datasets (Liber-zon et al., 2015). Samples were prepared in technical triplicates.

BRD4 = BRD4 (Homo sapiens, UniProt O60885); test: Cellular thermal shift assay (CETSA) in Ramos cells; format: cell-based; design: endogenous in cells; conditions: 20 μM, 40 min, vs DMSO
Procedure: (§1) Ramos cells (human Burkitt lymphoma cell line) at 20×10^6 were washed in PBS followed by resuspension in 5 mL serum-free RPMI. They were treated either with Cpd 010 or DMSO at 20 μM for 40 min at 37° C. with 5% CO2. Cells were then collected, resuspended in PBS and separated into PCR tubes. They were heated at designated temperature for strictly 3 min followed by another 3 min at 25° C. on ABI Applied Biosystems 9902 Veriti PCR Thermal Cycler. Immediately, they were placed in liquid nitrogen for snap freezing. The samples were freeze-thawed until the final samples were place on ice. They were centrifuged and supernatants were collected. Loading dye was mixed and these were processed as per our Western Blot protocol (see above). The following primary antibodies were used; rabbit BRD4 (Cell Signaling, #13440), rabbit BRD2 (Cell Signaling, #5848), and mouse anti-β-actin (Sigma-Aldrich, clone AC-74).

Vk*MYC myeloma cells = test: In vivo therapeutic assessment, Vk*MYC multiple myeloma mouse model; conditions: once daily, 5 days a week, 3 weeks
Procedure: For Vk*MYC multiple myeloma mouse models, wild type C57/B16 mice were irradi-ated with 2 fractions of 3.3Gy (Gammacell® 40 caesium source, Atomic Energy of Canada Ltd., Ontario, Canada) prior to transplantation of Vk*MYC myeloma cells (2.4×10^5). Mice were monitored for tumour progression by measuring M-proteins via serum protein electropho-resis (SPEP). Mice were treated with 3 weeks of Cpd 010 or vehicle once daily (5 days a week) for 3 weeks when their average SPEP has reached 7-10%. Serial measurement of SPEP was carried out during and post therapy. Overall survival was recorded.

OPM2 cells [1] = test: Synergy between PI3K and BET inhibitors, apoptosis assay (TMRE) and synergy score; format: cell-based, human
Procedure: An apoptosis assay using TMRE stain by flow cytometry was performed in OPM2 cells with indicated compounds. […] Using Synergyfinder web application (https://synergyfinder.fimm.fi), synergy score was calculated. Zero Interaction Potency (ZIP) reference models was utilised.

BRD2 = biological target: T1, BRD2 (Homo sapiens, UniProt P25440); test: Cellular thermal shift assay (CETSA) in Ramos cells; format: cell-based; conditions: 20 μM, 40 min, vs DMSO
T1 construct: endogenous in cells; host or cells: Ramos
Procedure: as §1

[2] = test system: panel of human multiple myeloma cell lines; test: Apoptosis assay (TMRE, flow cytometry); format: cell-based; conditions: 48 h
Procedure: A panel of human multiple myeloma cell lines (3×10^5) was incubated in the presence of Cpd 010 or DMSO vehicle control with indicated concentrations for 48 h before flow cytometric analysis of viability using Tetramethylrhodamine ethylester (TMRE) stains. Further apoptotic assay using only OPM2 cells was carried out using Cpd 010 or DMSO with TMRE stains.

[3] = test system: PD-L1 and pAKT (PI3K substrate); test: In vivo target engagement from a single dose (PD-L1, pAKT), Eμ-Myc lymphoma; design: species or system mouse; conditions: single dose 35-45 mg/kg
Procedure: B6.SJL-PtprcPepc/BoyJ (B6.CD45.1) mice were inoculated via tail vein injection with 5×10^5 Eμ-Myc lymphoma cells and left untreated for 12-14 days. A single injection of Cpd 010 at 35-45 mg/kg, or vehicle control (30% HPBCD) was administered. Half of the mice (n=6) were harvested 6 h post injection while the other half (n=6) were harvested 16 h later. Assessment of tumour burden was carried out on single cell suspension of harvested lymph nodes, spleen and blood by flow cytometry using antibodies as above. PD-L1 MFI was assessed by flow cytometry in harvested LNs using anti-mouse PD-L1-PE (ThermoFisher Scientific, clone MIH5) or isotype control antibodies (Mouse IgG2b PE, #559529). Harvested LNs were also washed in PBS and lysates were collected using Laemmli Buffer (AlfaAeser #J61337). They were processed as per our Western Blot protocol (see above) before they were probed for primary pAKT antibodies. Spleen size and weights were also measured between the treatment groups.
In terms of target engagement, PD-L1 expression in the tumour cells were measured in the harvested LN and spleen. As expression of the Myc transgene in Eμ-Myc is not BET-de pendent, MYC cannot be measured as a read-out of BET inhibition, therefore PD-L1 was used as an indicator for BET inhibition. […] Similarly, pAKT (PI3K substrate) was suppressed by Cpd 010 in the lysates made from harvested LN.

OPM2 cells [4] = test: Cell proliferation assay (ViaLight, cellular ATP); format: cell-based; conditions: Homo sapiens, OPM-2, 120 h, 5 days, 5 μM to 1 nM
How it was run: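 1×10^3 cells per well exposed to compounds at final 5 μM to 1 nM for 5 days. Viability read as cellular ATP by ViaLight luminescence, technical triplicates. GI50 computed from the dose–response.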

T1 sequence (P25440 whole entry): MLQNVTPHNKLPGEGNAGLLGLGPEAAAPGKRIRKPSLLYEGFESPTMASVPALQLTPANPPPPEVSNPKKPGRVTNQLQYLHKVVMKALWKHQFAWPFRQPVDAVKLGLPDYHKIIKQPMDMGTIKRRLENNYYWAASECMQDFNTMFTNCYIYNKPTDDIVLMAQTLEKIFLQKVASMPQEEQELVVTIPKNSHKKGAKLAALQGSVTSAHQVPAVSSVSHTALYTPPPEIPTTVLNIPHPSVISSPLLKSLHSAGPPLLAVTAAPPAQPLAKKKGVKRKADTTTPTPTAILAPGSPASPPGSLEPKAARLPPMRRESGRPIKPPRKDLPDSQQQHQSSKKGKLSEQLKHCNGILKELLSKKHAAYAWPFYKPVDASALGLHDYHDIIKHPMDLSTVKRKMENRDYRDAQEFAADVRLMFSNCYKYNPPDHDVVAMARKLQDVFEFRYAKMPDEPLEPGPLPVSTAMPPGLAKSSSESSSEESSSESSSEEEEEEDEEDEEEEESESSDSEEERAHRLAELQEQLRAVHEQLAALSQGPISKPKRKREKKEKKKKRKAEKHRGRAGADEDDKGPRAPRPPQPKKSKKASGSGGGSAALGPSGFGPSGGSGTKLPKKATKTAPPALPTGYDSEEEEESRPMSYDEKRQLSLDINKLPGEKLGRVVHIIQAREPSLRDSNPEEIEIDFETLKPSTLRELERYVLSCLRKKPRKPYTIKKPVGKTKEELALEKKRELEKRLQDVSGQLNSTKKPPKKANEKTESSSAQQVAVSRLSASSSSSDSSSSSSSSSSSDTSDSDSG

CC(=O)N1c2ccc(-c3ccc(CNC(=O)c4cn5cc(-c6cnc(N)nc6)nc(N6CCOCC6)c5n4)cc3)cc2CC[C@@H]1C [Cpd 010, (S)-N-(4-(1-acetyl-2-methyl-1,2,3,4-tetrahydroquinolin-6-yl)benzyl)-6-(2-aminopyrimidin-5-yl)-8-morpholinoimidazo[1,2-a]pyrazine-2-carboxamide]
gene set enrichment (MYC target genes): enrichment against MYC target genes with a trend toward MTORC1 signaling genes | clearance of BRD4 protein with increasing temperature (BRD4): delayed clearance | tumour burden (M-proteins) on treatment (Vk*MYC myeloma cells; SPEP): reduce tumour burden (M-proteins) | median survival (Vk*MYC myeloma cells; vehicle 196.5 days): 243 days | induction of apoptosis (OPM2 cells [1]): even more enhanced apoptosis compared to the combination of two drugs together | clearance of BRD2 protein with increasing temperature (BRD2): delayed clearance | relative sensitivity of the cell lines ([2]; U266 express MYCN instead of c-MYC): OPM2 cells were the most sensitive and U266 was the least sensitive | induction of apoptosis in multiple myeloma cell lines ([2]; six cell lines): induced dose-dependent apoptosis in five of the six treated cells | PD-L1 expression in tumour cells (indicator for BET inhibition) ([3]; harvested LN): significantly reduced | pAKT (PI3K substrate) ([3]; lysates from harvested LN): suppressed | GI50 (OPM2 cells [4]): ≤ 0.1 µM
